Reference: PubChem BioAssay (NCI)
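Interpolation was linear, between the two tested concentrations surrounding the appropriate level; five concentrations were tested over 48 hours in 96-well plates. TGI marks complete inhibition of growth.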

Tests used:
Experiment in all cases: growth of human tumour cells (NCI), 48 h
SNB-19 CNS = system: SNB-19 CNS
MCF7 breast = system: MCF7 breast
HL-60(TB) leukemia = system: HL-60(TB) leukemia
A549 NSCLC = system: A549 NSCLC
NCI-H460 lung = system: NCI-H460 lung
HS 578T breast = system: HS 578T breast
NCI/ADR-RES ovarian = system: NCI/ADR-RES ovarian
HCT-116 colon = system: HCT-116 colon
UO-31 renal = system: UO-31 renal
MALME-3M melanoma = system: MALME-3M melanoma
SF-539 CNS = system: SF-539 CNS
NCI-H226 lung = system: NCI-H226 lung
UACC-62 melanoma = system: UACC-62 melanoma
SK-MEL-28 melanoma = system: SK-MEL-28 melanoma
OVCAR-4 ovarian = system: OVCAR-4 ovarian
K-562 leukemia = system: K-562 leukemia
MDA-MB-231 breast = system: MDA-MB-231 breast
BT-549 breast = system: BT-549 breast
LOX IMVI melanoma = system: LOX IMVI melanoma
SN12C renal = system: SN12C renal
OVCAR-5 ovarian = system: OVCAR-5 ovarian
SF-268 CNS = system: SF-268 CNS
SK-MEL-5 melanoma = system: SK-MEL-5 melanoma
SK-OV-3 ovarian = system: SK-OV-3 ovarian
TK-10 renal = system: TK-10 renal
IGROV1 ovarian = system: IGROV1 ovarian
SNB-75 CNS = system: SNB-75 CNS
DU-145 prostate = system: DU-145 prostate
OVCAR-3 ovarian = system: OVCAR-3 ovarian
HCT-15 colon = system: HCT-15 colon
PC-3 prostate = system: PC-3 prostate
EKVX NSCLC = system: EKVX NSCLC
SF-295 CNS = system: SF-295 CNS
HCC-2998 colon = system: HCC-2998 colon
KM12 colon = system: KM12 colon
RXF 393 renal = system: RXF 393 renal
UACC-257 melanoma = system: UACC-257 melanoma
NCI-H23 lung = system: NCI-H23 lung
MOLT-4 leukemia = system: MOLT-4 leukemia
HOP-62 NSCLC = system: HOP-62 NSCLC
CCRF-CEM leukemia = system: CCRF-CEM leukemia
ACHN renal = system: ACHN renal
U251 CNS = system: U251 CNS
COLO 205 colon = system: COLO 205 colon
RPMI-8226 leukemia = system: RPMI-8226 leukemia
SK-MEL-2 melanoma = system: SK-MEL-2 melanoma
OVCAR-8 ovarian = system: OVCAR-8 ovarian
786-0 renal = system: 786-0 renal
NCI-H522 lung = system: NCI-H522 lung
M14 melanoma = system: M14 melanoma
HT29 colon = system: HT29 colon
SW-620 colon = system: SW-620 colon
T-47D breast = system: T-47D breast
MDA-MB-435 = system: MDA-MB-435
HOP-92 NSCLC = system: HOP-92 NSCLC

SMILES: C(=N\NC1=NCCCCN1)/c1ccc2ccccc2c1
- TGI (SNB-19 CNS): > 100 µM
- TGI (MCF7 breast): 70.4 µM
- TGI (HL-60(TB) leukemia): 62.8 µM
- TGI (A549 NSCLC): > 100 µM
- TGI (NCI-H460 lung): 62.9 µM
- TGI (HS 578T breast): > 100 µM
- TGI (NCI/ADR-RES ovarian): > 100 µM
- TGI (HCT-116 colon): > 100 µM
- TGI (UO-31 renal): > 100 µM
- TGI (MALME-3M melanoma): 30.4 µM
- TGI (SF-539 CNS): 51.3 µM
- TGI (NCI-H226 lung): 66.1 µM
- TGI (UACC-62 melanoma): 79.8 µM
- TGI (SK-MEL-28 melanoma): 40.4 µM
- TGI (OVCAR-4 ovarian): > 100 µM
- TGI (K-562 leukemia): 40.2 µM
- TGI (MDA-MB-231 breast): 65.9 µM
- TGI (BT-549 breast): > 100 µM
- TGI (LOX IMVI melanoma): 29.8 µM
- TGI (SN12C renal): > 100 µM
- TGI (OVCAR-5 ovarian): 76.7 µM
- TGI (SF-268 CNS): > 100 µM
- TGI (SK-MEL-5 melanoma): 31.3 µM
- TGI (SK-OV-3 ovarian): > 100 µM
- TGI (TK-10 renal): > 100 µM
- TGI (IGROV1 ovarian): > 100 µM
- TGI (SNB-75 CNS): > 100 µM
- TGI (DU-145 prostate): > 100 µM
- TGI (OVCAR-3 ovarian): > 100 µM
- TGI (HCT-15 colon): 87.5 µM
- TGI (PC-3 prostate): > 100 µM
- TGI (EKVX NSCLC): > 100 µM
- TGI (SF-295 CNS): 46.3 µM
- TGI (HCC-2998 colon): 30.3 µM
- TGI (KM12 colon): > 100 µM
- TGI (RXF 393 renal): 60.8 µM
- TGI (UACC-257 melanoma): 46.6 µM
- TGI (NCI-H23 lung): > 100 µM
- TGI (MOLT-4 leukemia): 53.2 µM
- TGI (HOP-62 NSCLC): > 100 µM
- TGI (CCRF-CEM leukemia): > 100 µM
- TGI (ACHN renal): > 100 µM
- TGI (U251 CNS): 58.6 µM
- TGI (COLO 205 colon): 31.5 µM
- TGI (RPMI-8226 leukemia): 76.1 µM
- TGI (SK-MEL-2 melanoma): 46.7 µM
- TGI (OVCAR-8 ovarian): > 100 µM
- TGI (786-0 renal): 67.9 µM
- TGI (NCI-H522 lung): 87.1 µM
- TGI (M14 melanoma): 28 µM
- TGI (HT29 colon): 71.9 µM
- TGI (SW-620 colon): 52.4 µM
- TGI (T-47D breast): 62 µM
- TGI (MDA-MB-435): 34.7 µM
- TGI (HOP-92 NSCLC): 62.7 µM
